The record followed here is patent US11826351B2, “Compounds useful as kinase inhibitors” (Loxo Oncology, Inc., priority 2015, dated 2023).

One assay has as its target T1, Recombinant EGFR (Homo sapiens, UniProt P00533).
T1 construct: purchased Invitrogen
As to the kind of experiment: EGFR binding affinity (LanthaScreen TR-FRET). The conditions noted are these: Kinase Tracer 199, 5 h incubation. Here is the method:
EGFR binding affinity was determined using a time-resolved fluorescence resonance energy transfer (TR-FRET) methodology. […] Recombinant EGFR and all LanthaScreen™ components were purchased from Invitrogen. Measurements were performed in a reaction volume of 30 μL using half-area 96-well assay plates. […] Binding affinity was determined for each compound by measuring TR-FRET signal at various concentrations of compound and plotting the relative fluorescence units against the inhibitor concentration to estimate the IC50 from log[Inhibitor] vs response using the Variable Slope model in Graphpad prism from Graphpad software (San Diego, Calif.).

Assay [1] relates to OCI-Ly10 human DLBCL cells. As to the kind of experiment: OCI-Ly10 anti-proliferative activity (Resazurin). The conditions noted are these: Homo sapiens, OCI-Ly10, 72 h, OCI-Ly10 cells, 72 h compound treatment, Resazurin; read-out: Proliferation Assay OCI-Ly10-20% FBS. Type of assay: cell-based. Here is the method:
Compounds were assayed for effects on the growth of OCI-Ly10 human DLBCL cells that are dependent on NFκB signalling. […] Cells were then plated at 7.5×10^3 cells per well in 96-well plates in varying concentrations of compound and incubated for 72 h at 37° C. An additional plate of cells to be used as the Day 0 read was seeded without compound addition, Resazurin was added to each well, incubated for 5 h and the fluorescence measured at 590 nm. After 72 h of compound treatment, Resazurin was added to each well of the compound treated plates, incubated for 5 h and the fluorescence measured at 590 nm. The IC50 was then calculated by subtracting the average Day 0 value from each well value from the treated plates, each treatment was then calculated as a percentage of the DMSO control and the percentages plotted against the inhibitor concentration to estimate the IC50 from log[Inhibitor] vs response using the Variable Slope model in Graphpad prism from Graphpad software (San Diego, Calif.).

The target of assay [2] is T2, Recombinant BTK^C481S kinase (Homo sapiens, UniProt Q06187, C481S).
T2 construct: purchased SignalChem
As to the kind of experiment: BTK C481S binding affinity (LanthaScreen TR-FRET). To be noted: Kinase Tracer 236, 5 h incubation. As to the method:
(§1) BTK^C481S binding affinity of each compound tested was determined using a time-resolved fluorescence resonance energy transfer (TR-FRET) methodology. 5 nM Recombinant BTK^WT kinase, varying concentrations of inhibitor, 2 nM LanthaScreen™ Eu anti-His Antibody and 30 nM Kinase Tracer 236 was incubated in 1× LanthaScreen™ Kinase Buffer A for 5 h. Recombinant BTK^C481S kinase was purchased from SignalChem and all LanthaScreen™ components were purchased from Invitrogen. Measurements were performed in a reaction volume of 30 μL using half-area 96-well assay plates. The TR-FRET signal was read on a plate reader with an excitation wavelength of 340 nm and detection wavelengths of 615 and 665 nm. Binding affinity was determined for each compound by measuring TR-FRET signal at various concentrations of compound and plotting the relative fluorescence units against the inhibitor concentration to estimate the IC50 from log[Inhibitor] vs response using the Variable Slope model in Graphpad prism from Graphpad software (San Diego, Calif.).

For assay [3], the target named is T3, Recombinant BTK^WT kinase (Homo sapiens, UniProt Q06187).
T3 construct: purchased Invitrogen
The assay is described as follows: BTK WT binding affinity (LanthaScreen TR-FRET). To be noted: Kinase Tracer 236, 5 h incubation. As to the method:
as §1, with “BTK^WT binding” for “BTK^C481S binding”, “methodology. 2.5” for “methodology. 5”, “and 15” for “and 30”, “Recombinant BTK” for “Recombinant BTK^C481S”, “kinase” for “kinase was purchased from SignalChem”

Structures are written as SMILES.

T2 sequence (Q06187 whole entry C481S): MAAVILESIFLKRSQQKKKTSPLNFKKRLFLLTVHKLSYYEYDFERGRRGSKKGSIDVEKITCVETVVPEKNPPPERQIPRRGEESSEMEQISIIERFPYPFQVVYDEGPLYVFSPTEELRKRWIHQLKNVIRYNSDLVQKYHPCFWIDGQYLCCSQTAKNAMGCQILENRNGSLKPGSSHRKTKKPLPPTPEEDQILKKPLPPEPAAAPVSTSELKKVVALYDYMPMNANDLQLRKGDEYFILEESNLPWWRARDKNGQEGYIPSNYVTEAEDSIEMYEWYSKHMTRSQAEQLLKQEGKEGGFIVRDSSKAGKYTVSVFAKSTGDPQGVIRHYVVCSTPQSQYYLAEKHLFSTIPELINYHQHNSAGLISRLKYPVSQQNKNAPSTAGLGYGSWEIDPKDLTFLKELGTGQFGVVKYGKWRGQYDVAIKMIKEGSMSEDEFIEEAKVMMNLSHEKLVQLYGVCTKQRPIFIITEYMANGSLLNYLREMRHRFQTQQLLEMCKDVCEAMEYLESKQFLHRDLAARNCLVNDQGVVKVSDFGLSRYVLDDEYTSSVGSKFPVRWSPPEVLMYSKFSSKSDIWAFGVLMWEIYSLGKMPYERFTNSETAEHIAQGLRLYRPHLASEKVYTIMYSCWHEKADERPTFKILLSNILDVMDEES
T1 sequence (P00533 25-1210): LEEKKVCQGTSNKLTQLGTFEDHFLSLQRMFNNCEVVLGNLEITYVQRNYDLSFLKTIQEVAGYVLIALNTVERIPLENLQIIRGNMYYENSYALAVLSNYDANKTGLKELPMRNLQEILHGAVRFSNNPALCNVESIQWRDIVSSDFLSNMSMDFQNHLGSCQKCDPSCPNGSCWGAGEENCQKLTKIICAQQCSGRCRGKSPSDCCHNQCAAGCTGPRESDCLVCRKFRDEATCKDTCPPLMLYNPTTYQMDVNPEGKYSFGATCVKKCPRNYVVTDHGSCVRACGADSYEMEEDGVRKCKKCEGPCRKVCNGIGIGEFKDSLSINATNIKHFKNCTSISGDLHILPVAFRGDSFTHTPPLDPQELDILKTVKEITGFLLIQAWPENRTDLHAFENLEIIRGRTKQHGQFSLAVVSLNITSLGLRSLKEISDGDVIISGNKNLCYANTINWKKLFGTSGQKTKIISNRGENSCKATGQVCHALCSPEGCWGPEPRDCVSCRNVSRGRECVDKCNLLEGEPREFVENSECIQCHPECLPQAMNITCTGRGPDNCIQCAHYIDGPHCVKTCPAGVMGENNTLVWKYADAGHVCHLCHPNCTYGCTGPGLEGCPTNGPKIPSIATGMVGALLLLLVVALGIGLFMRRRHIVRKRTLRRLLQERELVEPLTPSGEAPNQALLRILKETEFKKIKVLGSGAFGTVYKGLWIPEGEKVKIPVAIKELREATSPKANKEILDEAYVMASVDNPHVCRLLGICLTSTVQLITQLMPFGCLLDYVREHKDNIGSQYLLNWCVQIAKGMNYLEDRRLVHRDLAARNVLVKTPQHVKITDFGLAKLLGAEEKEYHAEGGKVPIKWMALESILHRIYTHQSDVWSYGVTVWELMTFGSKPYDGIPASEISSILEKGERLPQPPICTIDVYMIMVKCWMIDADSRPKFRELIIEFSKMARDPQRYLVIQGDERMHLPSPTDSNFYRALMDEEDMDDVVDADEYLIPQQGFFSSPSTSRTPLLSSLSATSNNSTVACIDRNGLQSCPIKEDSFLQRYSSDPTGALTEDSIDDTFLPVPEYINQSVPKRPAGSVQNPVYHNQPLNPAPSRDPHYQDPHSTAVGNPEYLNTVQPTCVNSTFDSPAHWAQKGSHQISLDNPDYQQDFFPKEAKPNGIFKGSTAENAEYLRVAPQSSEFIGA
T3 sequence (Q06187 whole entry): as the sequence (Q06187 whole entry C481S) above, with S481C counted along it

In the case of `COc1ccccc1C(=O)NCc1ccc(-c2nn(C3CCCOC3)c(N)c2C(N)=O)cc1F` (centres unmarked) [Example 117, 5-amino-3-[3-fluoro-4-[[(2-methoxybenzoyl)amino]methyl]phenyl]-1-tetrahydropyran-3-yl-pyrazole-4-carboxamide], the IC50 is 1 to 10 µM on Recombinant EGFR, 10 to 100 nM in assay [1], less than 10 nM in assay [2] and less than 10 nM in assay [3].

As to `COc1ccc(F)cc1C(=O)NCc1ccc(-c2nn(C3CCCOC3)c(N)c2C(N)=O)c(F)c1` (centres unmarked) [Example 107, 5-amino-3-[2-fluoro-4-[[(5-fluoro-2-methoxy-benzoyl)amino]methyl]phenyl]-1-tetrahydropyran-3-yl-pyrazole-4-carboxamide], the IC50 at Recombinant EGFR was more than 10 µM; in assay [1], 10 to 100 nM; in assay [2], less than 10 nM; in assay [3] it was less than 10 nM.

In the case of `COCOCCn1nc(-c2ccc(CNC(=O)c3ccccc3OC)cc2)c(C(N)=O)c1N` [Example 7, 5-amino-3-[4-[[(2-methoxybenzoyl)amino]methyl]phenyl]-1-[2-(methoxymethoxy)ethyl]pyrazole-4-carboxamide], the IC50 was more than 10 µM on Recombinant EGFR, 100 to 1000 nM in assay [1], 10 to 100 nM in assay [2] and 100 to 1000 nM in assay [3].

For the compound `COc1ccc(F)cc1C(=O)NCc1ccc(-c2nn(C(C3CCCC3)C(F)(F)F)c(N)c2C(N)=O)cc1` (centres unmarked) [Example 196, 5-Amino-1-(1-cyclopentyl-2,2,2-trifluoro-ethyl)-3-[4-[[(5-fluoro-2-methoxy-benzoyl)amino]methyl]phenyl]pyrazole-4-carboxamide], the IC50 on Recombinant EGFR is 1 to 10 µM; in assay [1] it was 100 to 1000 nM; in assay [2], 10 to 100 nM; in assay [3], 10 to 100 nM.

`CCC(n1nc(-c2ccc(CNC(=O)c3ccccc3OC)cc2)c(C(N)=O)c1N)C(F)(F)F` (centres unmarked) [Example 170, 5-amino-3-[4-[[(2-methoxybenzoyl)amino]methyl]phenyl]-1-[1-(trifluoromethyl)propyl]pyrazole-4-carboxamide]: the IC50 at Recombinant EGFR is 1 to 10 µM; in assay [1] it was 100 to 1000 nM; in assay [2] it was less than 10 nM; in assay [3] it was 10 to 100 nM.

As for `COc1ccccc1C(=O)NCc1ccc(-c2nn(-c3cccc(F)c3F)c(N)c2C(N)=O)cc1` [Example 81, 5-amino-1-(2,3-difluorophenyl)-3-[4-[[(2-methoxybenzoyl)amino]methyl]phenyl]pyrazole-4-carboxamide], the IC50 was 0.1 to 1 µM on Recombinant EGFR, 10 to 100 nM in assay [1], less than 10 nM in assay [2] and less than 10 nM in assay [3].

For the compound `COc1ccccc1C(=O)NCc1ccc(-c2nn(-c3cccnc3)c(N)c2C(N)=O)cc1` [Example 51, 5-amino-3-[4-[[(2-methoxybenzoyl)amino]methyl]phenyl]-1-(3-pyridyl)pyrazole-4-carboxamide], the IC50 at Recombinant EGFR was 0.1 to 1 µM; in assay [1], 10 to 100 nM; in assay [2], less than 10 nM; in assay [3], less than 10 nM.

Consider `COc1ccccc1C(=O)NCc1ccc(-c2nn([C@@H]3CCc4ccccc43)c(N)c2C(N)=O)cc1` [Example 23, 5-Amino-1-[(1R)-indan-1-yl]-3-[4-[[(2-methoxybenzoyl)amino]methyl]phenyl]pyrazole-4-carboxamide], for which the IC50 at Recombinant EGFR is 0.1 to 1 µM; in assay [1], 10 to 100 nM; in assay [2] it was less than 10 nM; in assay [3], less than 10 nM.

As to `COc1ccccc1C(=O)NCc1ccc(-c2nn(CC(F)(F)F)c(N)c2C(N)=O)cc1F` [Example 129, 5-amino-3-[3-fluoro-4-[[(2-methoxybenzoyl)amino]methyl]phenyl]-1-(2,2,2-trifluoroethyl)pyrazole-4-carboxamide], the IC50 on Recombinant EGFR was 1 to 10 µM; in assay [1] it was 100 to 1000 nM; in assay [2], less than 10 nM; in assay [3] it was less than 10 nM.

Consider `COc1ccc(F)cc1C(=O)NCc1ccc(-c2nn(C(C)C(F)(F)F)c(N)c2C(N)=O)c(F)c1F` (centres unmarked) [Example 165, 5-amino-3-[2,3-difluoro-4-[[(5-fluoro-2-methoxy-benzoyl)amino]methyl]phenyl]-1-(2,2,2-trifluoro-1-methyl-ethyl)pyrazole-4-carboxamide], for which the IC50 at Recombinant EGFR is 1 to 10 µM; in assay [1], 10 to 100 nM; in assay [2], less than 10 nM; in assay [3] it was 10 to 100 nM.

With `COc1ccc(F)cc1C(=O)NCc1c(F)cc(-c2nn(C3CCCC3)c(N)c2C(N)=O)cc1F` [Example 139, 5-amino-1-cyclopentyl-3-[3,5-difluoro-4-[[(5-fluoro-2-methoxy-benzoyl)amino]methyl]phenyl]pyrazole-4-carboxamide], the IC50 on Recombinant EGFR was more than 10 µM; in assay [1], 100 to 1000 nM; in assay [2] it was less than 10 nM; in assay [3], 10 to 100 nM.

As for `COc1ccccc1C(=O)NCc1ccc(-c2nn(C3CC(C)(C)OC(C)(C)C3)c(N)c2C(N)=O)cc1` [Example 90, 5-amino-3-[4-[[(2-methoxybenzoyl)amino]methyl]phenyl]-1-(2,2,6,6-tetramethyltetrahydropyran-4-yl)pyrazole-4-carboxamide], the IC50 is 1 to 10 µM on Recombinant EGFR, 100 to 1000 nM in assay [1], less than 10 nM in assay [2] and 10 to 100 nM in assay [3].

On to `COc1ccccc1C(=O)NCc1ccc(-c2nn(C3CCOCC3)c(C(F)F)c2C(N)=O)cc1` [Example 108, 5-(difluoromethyl)-3-[4-[[(2-methoxybenzoyl)amino]methyl]phenyl]-1-tetrahydropyran-4-yl-pyrazole-4-carboxamide], for which the IC50 on Recombinant EGFR is more than 10 µM; in assay [1], 1000 to 10000 nM; in assay [2] it was 10 to 100 nM; in assay [3], 10 to 100 nM.

Take `COc1ccccc1C(=O)NCc1ccc(-c2nn(-c3ccc(C(F)(F)F)cn3)c(N)c2C(N)=O)cc1` [Example 6, 5-Amino-3-[4-[[(2-methoxybenzoyl)amino]methyl]phenyl]-1-[5-(trifluoromethyl)-2-pyridyl]pyrazole-4-carboxamide]: the IC50 at Recombinant EGFR is more than 10 µM; in assay [1] it was 100 to 1000 nM; in assay [2], less than 10 nM; in assay [3], 10 to 100 nM.

With `COc1ccc(F)cc1C(=O)NCc1ccc(-c2nn(C(CCO)C(F)F)c(N)c2C(N)=O)cc1` (centres unmarked) [Example 193, 5-Amino-1-[1-(difluoromethyl)-3-hydroxy-propyl]-3-[4-[[(5-fluoro-2-methoxy-benzoyl)amino]methyl]phenyl]pyrazole-4-carboxamide], the IC50 on Recombinant EGFR was 1 to 10 µM; in assay [1], 100 to 1000 nM; in assay [2] it was less than 10 nM; in assay [3] it was 10 to 100 nM.

Regarding `COc1ccc(F)cc1C(=O)NCc1ccc(-c2nn([C@H]3CCOC3)c(N)c2C(N)=O)cc1` [Example 162, 5-amino-3-[4-[[(5-fluoro-2-methoxy-benzoyl)amino]methyl]phenyl]-1-[(3S)-tetrahydrofuran-3-yl]pyrazole-4-carboxamide], the IC50 at Recombinant EGFR was 1 to 10 µM; in assay [1], 10 to 100 nM; in assay [2], less than 10 nM; in assay [3], less than 10 nM.

Take `COc1ccccc1C(=O)NCc1cc(F)c(-c2nn(C3CCCC3)c(N)c2C(N)=O)c(F)c1` [Example 140, 5-amino-1-cyclopentyl-3-[2,6-difluoro-4-[[(2-methoxybenzoyl)amino]methyl]phenyl]pyrazole-4-carboxamide]: the IC50 was more than 10 µM on Recombinant EGFR, 100 to 1000 nM in assay [1], less than 10 nM in assay [2] and less than 10 nM in assay [3].
